According to paper PMC9501633, “Synthesis, Characterisation and Mechanism of Action of Anticancer 3-Fluoroazetidin-2-ones” (Pharmaceuticals, 2022):

Tests used:
K-562 = experiment: NCI 60 cell line screen, Leukaemia; format: cell-based, human
MDA-MB-468 = experiment: NCI 60 cell line screen, Breast; format: cell-based, human; conditions: one dose 10 µM
OVCAR-5 = experiment: NCI 60 cell line screen, Ovarian; format: cell-based, human; conditions: one dose 10 µM
SF-539 = experiment: NCI 60 cell line screen, CNS; format: cell-based, human; conditions: one dose 10 µM
T-47D = experiment: NCI 60 cell line screen, Breast; format: cell-based, human; conditions: one dose 10 µM
MOLT-4 = experiment: NCI 60 cell line screen, Leukaemia; format: cell-based, human; conditions: one dose 10 µM
SNB-19 = experiment: NCI 60 cell line screen, CNS; format: cell-based, human; conditions: one dose 10 µM
UACC-257 = experiment: NCI 60 cell line screen, Melanoma; format: cell-based, human; conditions: one dose 10 µM
leukaemia panel = experiment: NCI 60 cell line one-dose screen, panel mean; format: cell-based; conditions: Homo sapiens, one dose 10 μM, read-out: mean growth inhibition
Method: The antiproliferative effects of selected compounds 33, 37 and 43 were initially evaluated in the NCI 60 cell line screen at 10 μM concentration (see Supplementary Materials Table S3).
(§1) aData obtained from NCI in vitro human tumour cell screen 1 dose assay (10 µM). 33 (NCI

SR = experiment: NCI 60 cell line screen, Leukaemia; format: cell-based, human; conditions: one dose 10 µM
A498 = experiment: NCI 60 cell line screen, Renal; format: cell-based, human; conditions: one dose 10 µM
UO-31 = experiment: NCI 60 cell line screen, Renal; format: cell-based, human; conditions: one dose 10 µM
BT-549 = experiment: NCI 60 cell line screen, Breast; format: cell-based, human; conditions: one dose 10 µM
IGROV1 = experiment: NCI 60 cell line screen, Ovarian; format: cell-based, human
NCI-H23 = experiment: NCI 60 cell line screen, NSCLung; format: cell-based, human; conditions: one dose 10 µM
KM12 = experiment: NCI 60 cell line screen, Colon; format: cell-based, human; conditions: one dose 10 µM
ACHN = experiment: NCI 60 cell line screen, Renal; format: cell-based, human; conditions: one dose 10 µM
786–0 = experiment: NCI 60 cell line screen, Renal; format: cell-based, human; conditions: 786-0, one dose 10 µM
SK-OV-3 = experiment: NCI 60 cell line screen, Ovarian; format: cell-based, human; conditions: one dose 10 µM
NCI-H522 = experiment: NCI 60 cell line screen, NSCLung; format: cell-based, human; conditions: one dose 10 µM
HL-60(TB) = experiment: NCI 60 cell line screen, Leukaemia; format: cell-based, human; conditions: one dose 10 µM
RPMI-8226 = experiment: NCI 60 cell line screen, Leukaemia; format: cell-based, human; conditions: one dose 10 µM
HS 578T = experiment: NCI 60 cell line screen, Breast; format: cell-based, human; conditions: one dose 10 µM
SN12C = experiment: NCI 60 cell line screen, Renal; format: cell-based, human; conditions: one dose 10 µM
NCI/ADR-RES = experiment: NCI 60 cell line screen, Ovarian; format: cell-based, human; conditions: one dose 10 µM
M14 = experiment: NCI 60 cell line screen, Melanoma; format: cell-based, human; conditions: one dose 10 µM
NCI 60 cell line panel = experiment: NCI 60 cell line screen, whole panel; format: cell-based
Method: The antiproliferative effects of selected compounds 33, 37 and 43 were initially evaluated in the NCI 60 cell line screen at 10 μM concentration (see Supplementary Materials Table S3). […] . […] .
Compound 33 was next selected for evaluation in the NCI 60 cell line five-dose screen. The GI50 (50% growth inhibition), TGI (total growth inhibition) and LC50 (50% lethal concentration) were determined in the NCI panel of 60 cell lines, using the sulphorhodamine B (SRB) protein assay (Table 5). The GI50 value provides the growth inhibition of the selected compound, while the cytotoxic effect is evaluated in the LC50 value. […] . […] . Glioblastoma is an aggressive and fast-growing brain tumour with a median survival time of 9–16 months from diagnosis, and these tumours quickly evolve resistance to temozolomide chemotherapy, which is the only FDA-approved treatment. […] . Further mechanistic and cellular studies were carried out and are described below.
as §1

SF-268 = experiment: NCI 60 cell line screen, CNS; format: cell-based, human; conditions: one dose 10 µM
PC-3 = experiment: NCI 60 cell line screen, Prostate; format: cell-based, human; conditions: one dose 10 µM
MALME-3M = experiment: NCI 60 cell line screen, Melanoma; format: cell-based, human; conditions: one dose 10 µM
HCT-15 = experiment: NCI 60 cell line screen, Colon; format: cell-based, human; conditions: one dose 10 µM
OVCAR-3 = experiment: NCI 60 cell line screen, Ovarian; format: cell-based, human; conditions: one dose 10 µM

COc1ccc(C2N(c3cc(OC)c(OC)c(OC)c3)C(=O)C2(F)F)cc1F (stereo not drawn) [Compound 43, 3,3-Difluoro-4-(3-fluoro-4-methoxyphenyl)-1-(3,4,5-trimethoxyphenyl)azetidin-2-one]
inhibition at 10 µM (K-562; Homo sapiens, K562, one dose 10 µM): 89.5%
Growth % (K-562; one dose 10 µM): 10.5%
inhibition at 10 µM (MDA-MB-468; Homo sapiens): 55.5%
Growth % (MDA-MB-468): 44.48%
inhibition at 10 µM (OVCAR-5; Homo sapiens): 21.3%
Growth % (OVCAR-5): 78.72%
inhibition at 10 µM (SF-539; Homo sapiens): 78.3%
Growth % (SF-539): 21.65%
inhibition at 10 µM (T-47D; Homo sapiens, T47D): 34.3%
Growth % (T-47D): 65.69%
inhibition at 10 µM (MOLT-4; Homo sapiens): 81.3%
Growth % (MOLT-4): 18.67%
inhibition at 10 µM (SNB-19; Homo sapiens): 47.1%
Growth % (SNB-19): 52.93%
inhibition at 10 µM (UACC-257; Homo sapiens): 50%
Growth % (UACC-257): 50.01%
inhibition at 10 µM (leukaemia panel): 86.3%
inhibition at 10 µM (SR; Homo sapiens): 81.3%
Growth % (SR): 18.7%
inhibition at 10 µM (A498; Homo sapiens): 2.19%
Growth % (A498): 97.81%
inhibition at 10 µM (UO-31; Homo sapiens): 46.5%
Growth % (UO-31): 53.48%
inhibition at 10 µM (BT-549; Homo sapiens): 65%
Growth % (BT-549): 34.99%
inhibition at 10 µM (IGROV1; Homo sapiens, IGROV-1, one dose 10 µM): 55.8%
Growth % (IGROV1; one dose 10 µM): 44.2%
inhibition at 10 µM (NCI-H23; Homo sapiens): 62.1%
Growth % (NCI-H23): 37.86%
inhibition at 10 µM (KM12; Homo sapiens): 77.1%
Growth % (KM12): 22.9%
inhibition at 10 µM (ACHN; Homo sapiens): 39.2%
Growth % (ACHN): 60.82%
Growth % (786–0): 75.35%
inhibition at 10 µM (786–0; Homo sapiens): 24.6%
inhibition at 10 µM (SK-OV-3; Homo sapiens): 24.5%
Growth % (SK-OV-3): 75.49%
inhibition at 10 µM (NCI-H522; Homo sapiens): 82.5%
Growth % (NCI-H522): 17.54%
inhibition at 10 µM (HL-60(TB); Homo sapiens): 99.1%
Growth % (HL-60(TB)): 0.94%
inhibition at 10 µM (RPMI-8226; Homo sapiens): 79.2%
Growth % (RPMI-8226): 20.78%
inhibition at 10 µM (HS 578T; Homo sapiens): 78.1%
Growth % (HS 578T): 21.93%
inhibition at 10 µM (SN12C; Homo sapiens): 45.1%
Growth % (SN12C): 54.92%
inhibition at 10 µM (NCI/ADR-RES; Homo sapiens): 67.1%
Growth % (NCI/ADR-RES): 32.94%
inhibition at 10 µM (M14; Homo sapiens): 75.8%
Growth % (M14): 24.24%
inhibition at 10 µM (NCI 60 cell line panel; Homo sapiens, 60 cell, one dose 10 μM, mean over the 60 cell lines, read-out: mean growth inhibition): 56.4%
mean Growth % (NCI 60 cell line panel; one dose 10 µM, mean over the cell lines): 43.57%
inhibition at 10 µM (SF-268; Homo sapiens): 47.1%
Growth % (SF-268): 52.94%
inhibition at 10 µM (PC-3; Homo sapiens): 64.1%
Growth % (PC-3): 35.89%
inhibition at 10 µM (MALME-3M; Homo sapiens): 35.9%
Growth % (MALME-3M): 64.09%
inhibition at 10 µM (HCT-15; Homo sapiens): 80.6%
Growth % (HCT-15): 19.44%
inhibition at 10 µM (OVCAR-3; Homo sapiens): 88.4%
Growth % (OVCAR-3): 11.64%
